This note sets out measurements from patent US3987167A, “Antibiotic 20,798 R.P” (Rhone-Poulenc S.A., priority 1968, dated 1976).

Series [1] has as its system acute lymphoblastic and myeloblastic leucaemias. Kind of series: Activity in human therapy. Format: in vivo. The conditions noted are these: intravenous, daily doses between 0.1 and 2 mg./kg., adult. As to the method: In human therapy 20,798 R.P. is active, particularly against acute lymphoblastic and myeloblastic leucaemias, when administered intravenously at daily doses of between 0.1 and 2 mg./kg. for an adult; a composition for injection for example, consists of a solution of 0.1 mg./cc. of active substance in physiological serum.

A short description of series [2]: Stability to acid treatment of the fermentation broth. Conditions: 10° to 75° C., 48 hours to 30 minutes. It counts as physicochemical. As to the method:
When desired, the fermentation broth can, before the extraction procedures, be treated with an acid at a temperature between 10° and 75° C. for a period of from 48 hours to 30 minutes, the length of time varying inversely with the temperature, so as to enrich the antibiotic 9865 R.P. with daunorubicin. […] For acidification of the fermentation broth inorganic acids (hydrochloric, phosphoric or sulphuric acid) or organic acids (acetic or oxalic acid etc.) are suitable at various concentrations, but preferably hydrochloric acid or oxalic acid is used at concentrations of between 0.01N and 1N. The hydrolysis is preferably carried out for a period of from 15 hours to 1 hour at a temperature of from 20 C. to 50° C., the length of time varying inversely with the temperature.

Another series relates to sarcoma 180. Kind of series: Anti-tumour activity in mice, sarcoma 180. Conditions: graftable tumours of mice, solid form of sarcoma 180.
Another series concerns leucaemia L1210. In words: Anti-tumour activity in mice, leucaemia L1210. Conditions: graftable tumours of mice, leucaemia L 1210.

Structures are written as SMILES.

`COc1cccc2c1C(=O)c1c(O)c3c(c(O)c1C2=O)CC(O)(C(C)O)CC3OC1CC(N)C(O)C(C)O1` (stereo not shown) [20,798 R.P.]: the “activity in human therapy” value in series [1] is listed as “active”. Besides, the “hydrolysis on acid treatment” value in series [2] was “not hydrolysed”. Further, the anti-tumour activity result with sarcoma 180 and with leucaemia L1210 was “particularly active” each time.
